The values below are quoted from earlier work in patent US20240366601A1, “METHODS FOR TREATING TRAUMATIC BRAIN INJURY” (The Regents of the University of California, priority 2021, published 2024).

As a reminder, the IC50 is the concentration needed to halve the response being measured.

SMILES strings stand for the structures.

For data set [1] the following is noted: FDA-approved doses for cancer treatments; list continues over the following table lines.
The target in a further data set is CDK4 (Homo sapiens, UniProt P11802). Particulars: for CDK4; read-out: in vitro IC50 (nM) in cell-free assays.
CDK4, sequence (P11802 whole entry): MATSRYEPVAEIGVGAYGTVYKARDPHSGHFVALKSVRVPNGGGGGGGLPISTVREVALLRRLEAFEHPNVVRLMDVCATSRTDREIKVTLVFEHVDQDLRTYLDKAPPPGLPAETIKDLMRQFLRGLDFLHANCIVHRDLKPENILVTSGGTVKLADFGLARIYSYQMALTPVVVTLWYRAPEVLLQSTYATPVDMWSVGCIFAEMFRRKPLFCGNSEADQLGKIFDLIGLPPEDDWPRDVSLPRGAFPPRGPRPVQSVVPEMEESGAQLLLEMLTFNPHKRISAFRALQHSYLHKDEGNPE
CDK4, sequence (P24385 whole entry partner): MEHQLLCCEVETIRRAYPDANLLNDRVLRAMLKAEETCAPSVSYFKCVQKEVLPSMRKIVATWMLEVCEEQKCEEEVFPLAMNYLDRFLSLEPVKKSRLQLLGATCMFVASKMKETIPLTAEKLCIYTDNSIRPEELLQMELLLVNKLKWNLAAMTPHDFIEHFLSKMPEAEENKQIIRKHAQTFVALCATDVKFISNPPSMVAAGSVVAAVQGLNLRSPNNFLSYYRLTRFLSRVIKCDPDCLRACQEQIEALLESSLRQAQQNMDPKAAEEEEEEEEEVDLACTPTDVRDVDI

For `CCN1CCN(Cc2ccc(Nc3ncc(F)c(-c4cc(F)c5nc(C)n(C(C)C)c5c4)n3)nc2)CC1` [abemaciclib], the “Common Side effects at FDA-approved doses (Medline Plus)” value in data set [1] is given as “diarrhea, nausea, abdominal pain, infections, tiredness, anemia, leukopenia,”. With `CN1CCN(c2ccc(Nc3ncc4cc(C#N)c(=O)n(C5CCCC5)c4n3)cc2)CC1` [ON123300], the half-maximal inhibitory concentration (IC50) on CDK4 was 3.9 nM.

On to `CN(C)C(=O)c1cc2cnc(Nc3ccc(N4CCNCC4)cn3)nc2n1C1CCCC1` [ribociclib], for which the “Common Side effects at FDA-approved doses (Medline Plus)” value in data set [1] was “diarrhea; constipation; stomach pain; headache; hair loss; back pain; itching;”.
